# Source: US20150164762A1, “USE OF ETHANOLAMINE PHOSPHATE” (priority 2012, published 2015)
# System: BEAS-2B
# Experiment: Comprehensive gene expression analysis with Whole Human Genome DNA microarray after EP treatment
# Type: cell-based
# Method: Cells of the established normal human airway epithelial cell line BEAS-2B were used in the experiment. These cells were expansively cultured in 10% FBS RPMI-1640, and seeded at a density of 1×10^5/cm^2 on a 24-well plate. After 24 hours 0.1% FBS RPMI-1640 was substituted, and EP was administered to a final concentration of 0 or 1 mM (n=4). After 24 hours, the cells were used as the DNA microarray samples. RNA was extracted using a QIAGEN RNeasy Mini Kit. The DNA microarray test was performed using a Whole Human Genome DNA microarray 4×44K (Agilent), and the necessary labeling reagents and the like for the DNA microarray test were all from Agilent. The DNA microarray test data were analyzed statistically with GeneSpring (Agilent) dedicated analysis software, and gene function analysis (Gene Ontology (GO) analysis) was performed based on differential expression. The purpose of the GO analysis is to determine stochastically the degree to which gene sets with statistically significant differential expression correspond to known functional classification gene sets. […] The p-value is calculated according to the following formula.
# [1] = probe A_24_P215804, 1 mM EP, 24 h
# [2] = probe A_24_P218265, 1 mM EP, 24 h
# [3] = probe A_24_P226782, 1 mM EP, 24 h
# [4] = probe A_24_P231104, 1 mM EP, 24 h
# [5] = probe A_24_P261169, 1 mM EP, 24 h
# [6] = probe A_24_P273157, 1 mM EP, 24 h
# [7] = probe A_24_P295543, 1 mM EP, 24 h
# [8] = probe A_24_P302833, 1 mM EP, 24 h
# [9] = probe A_24_P307580, NM_001098523, EP vs control
# [10] = probe A_24_P313354, 1 mM EP, 24 h
# [11] = probe A_24_P313504, 1 mM EP, 24 h
# [12] = probe A_24_P317708, NM_138969, EP vs control
# [13] = probe A_24_P319113, 1 mM EP, 24 h
# [14] = probe A_24_P319983, 1 mM EP, 24 h
# [15] = probe A_24_P388659, 1 mM EP, 24 h
# [16] = probe A_24_P389409, NM_006129, EP vs control
# [17] = probe A_24_P389457, 1 mM EP, 24 h
# [18] = probe A_24_P413470, 1 mM EP, 24 h
# [19] = probe A_24_P722216, NM_018706, EP vs control
# [20] = probe A_24_P839629, 1 mM EP, 24 h
# [21] = probe A_24_P876522, NM_001008397, EP vs control
# [22] = probe A_24_P914519, S67289, EP vs control
# [23] = probe A_24_P928052, 1 mM EP, 24 h
# [24] = probe A_24_P934477, AJ000096, EP vs control
# [25] = probe A_24_P935986, 1 mM EP, 24 h
# [26] = probe A_24_P937256, 1 mM EP, 24 h
# [27] = probe A_24_P937317, NM_001014336, EP vs control
# [28] = probe A_24_P3305312, 1 mM EP, 24 h
# [29] = probe A_24_P9284523, 1 mM EP, 24 h
# [30] = probe A_32_P45009, NM_005896, EP vs control
# [31] = probe A_32_P75094, 1 mM EP, 24 h
# [32] = probe A_32_P89691, NM_003104, EP vs control
# [33] = probe A_32_P94798, 1 mM EP, 24 h
# [34] = probe A_32_P171043, 1 mM EP, 24 h
# [35] = probe A_32_P230808, 1 mM EP, 24 h
smiles,measurement,setting,value
"NCCOP(=O)(O)O [EP, Ethanolamine phosphate]",CKLF expression R*: Ratio to control,[1],1.551 times
same,CKLF expression log2 [ratio],[1],0.633
same,TNFRSF10B expression R*: Ratio to control,[2],0.475 times
same,TNFRSF10B expression log2 [ratio],[2],−1.073
same,SOX7 expression R: Ratio to control,[3],0.607 times
same,SOX7 expression log2 [ratio],[3],−0.720
same,LEPR expression R*: Ratio to control,[4],1.659 times
same,LEPR expression log2 [ratio],[4],0.730
same,SEMA4D expression R: Ratio to control,[5],0.558 times
same,SEMA4D expression log2 [ratio],[5],−0.842
same,OBSCN expression R: Ratio to control,[6],0.654 times
same,OBSCN expression log2 [ratio],[6],−0.613
same,BLOC1S2 expression R*: Ratio to control,[7],0.384 times
same,BLOC1S2 expression log2 [ratio],[7],−1.381
same,APPL1 expression R*: Ratio to control,[8],1.723 times
same,APPL1 expression log2 [ratio],[8],0.785
same,"HTATIP2 gene expression, R* ratio to control",[9],1.821 times
same,"HTATIP2 gene expression, log2 [ratio]",[9],0.865
same,NR2F2 expression R*: Ratio to control,[10],1.746 times
same,NR2F2 expression log2 [ratio],[10],0.804
same,PLK1 expression R*: Ratio to control,[11],1.939 times
same,PLK1 expression log2 [ratio],[11],0.955
same,"SDR16C5 gene expression, R* ratio to control",[12],2.349 times
same,"SDR16C5 gene expression, log2 [ratio]",[12],1.232
same,P2RX7 expression R: Ratio to control,[13],0.586 times
same,P2RX7 expression log2 [ratio],[13],−0.772
same,BCL10 expression R*: Ratio to control,[14],0.571 times
same,BCL10 expression log2 [ratio],[14],−0.310
same,ARHGAP24 expression R*: Ratio to control,[15],1.745 times
same,ARHGAP24 expression log2 [ratio],[15],0.803
same,"BMP1 gene expression, R* ratio to control",[16],0.650 times
same,"BMP1 gene expression, log2 [ratio]",[16],−0.622
same,CDKN1A expression R*: Ratio to control,[17],0.294 times
same,CDKN1A expression log2 [ratio],[17],−1.768
same,TP73 expression R*: Ratio to control,[18],0.482 times
same,TP73 expression log2 [ratio],[18],−1.054
same,"DHTKD1 gene expression, R* ratio to control",[19],1.429 times
same,"DHTKD1 gene expression, log2 [ratio]",[19],0.515
same,ZMAT3 expression R*: Ratio to control,[20],0.654 times
same,ZMAT3 expression log2 [ratio],[20],−0.612
same,"GPX8 gene expression, R* ratio to control",[21],1.602 times
same,"GPX8 gene expression, log2 [ratio]",[21],0.680
same,"CYBB gene expression, R* ratio to control",[22],1.958 times
same,"CYBB gene expression, log2 [ratio]",[22],0.968
same,NRP1 expression R*: Ratio to control,[23],1.990 times
same,NRP1 expression log2 [ratio],[23],0.993
same,"CBR3 gene expression, R* ratio to control",[24],2.429 times
same,"CBR3 gene expression, log2 [ratio]",[24],1.281
same,BCAT1 expression R*: Ratio to control,[25],1.721 times
same,BCAT1 expression log2 [ratio],[25],0.783
same,RELA expression R*: Ratio to control,[26],1.611 times
same,RELA expression log2 [ratio],[26],0.688
same,"IL31 gene expression, R* ratio to control",[27],0.296 times
same,"IL31 gene expression, log2 [ratio]",[27],−1.758
same,BBC3 expression R*: Ratio to control,[28],0.366 times
same,BBC3 expression log2 [ratio],[28],−1.452
same,MAP3K10 expression R*: Ratio to control,[29],0.570 times
same,MAP3K10 expression log2 [ratio],[29],−0.810
same,"IDH1 gene expression, R* ratio to control",[30],1.486 times
same,"IDH1 gene expression, log2 [ratio]",[30],0.571
same,A1FM2 expression R*: Ratio to control,[31],0.399 times
same,A1FM2 expression log2 [ratio],[31],−1.327
same,"SORD gene expression, R* ratio to control",[32],1.506 times
same,"SORD gene expression, log2 [ratio]",[32],0.590
same,ANXA2 expression R*: Ratio to control,[33],1.614 times
same,ANXA2 expression log2 [ratio],[33],0.691
same,CCBE1 expression R*: Ratio to control,[34],1.890 times
same,CCBE1 expression log2 [ratio],[34],0.918
same,KNG1 expression R*: Ratio to control,[35],0.358 times
same,KNG1 expression log2 [ratio],[35],−1.484
same,FAS expression,"probe A—23_P63896, 1 mM EP, 24 h",0.36 fold
same,catalase (CAT) expression,"probe A—23_P105138, 1 mM EP, 24 h",increased expression
same,NADPH:quinone reductase-1 (NQ01) expression,"probe A—23_P206661, 1 mM EP, 24 h",increased expression
same,thioredoxin (TXN) expression increase,"probe A—24_P175519, 1 mM EP, 24 h",1.4 times
